Measurements taken from patent US20260258084A1, “New Peptides as Selective IL-23 Receptor Antagonists” (Sanofi, priority 2022, published 2026).
Converted amounts (≈) assume the structure as drawn. Where two headings read alike, the source gives them in different places. Starred links: 1 amine or outer side, 2 acyl side, 3 side chain; linkers in the order of their positions; H or OH if unused. Positions of bridges follow the written chain, without caps; N, C: chain ends. Non-standard residues stand in square brackets, D forms with d. Residues, ends and D or L forms follow the SMILES beside them. *: point of attachment. X3 = CN(CCCCC(=O)N[C@@H](CS[*:2])C(=O)[*:1])[*:3]; X6 = O=C(CCC(=O)[*:3])N[C@@H](CS[*:2])C(=O)[*:1]; Trp(7-Me) = Cc1cccc2c(C[C@H](N)C(=O)O)c[nH]c12; X1 = O=C(CCCCN[*:3])N[C@@H](CS[*:2])C(=O)[*:1]; αMeLys(Me2) = CN(C)CCCC[C@](C)(N)C(=O)O; 2Nal = N[C@@H](Cc1ccc2ccccc2c1)C(=O)O; d2Nal = N[C@H](Cc1ccc2ccccc2c1)C(=O)O; 3Pal = N[C@@H](Cc1cccnc1)C(=O)O; Lys(Me) = CNCCCC[C@H](N)C(=O)O; αMeL = CC(C)C[C@](C)(N)C(=O)O; Suc = O=C(CCC(=O)[*:2])[*:1]; Thp = NC1(C(=O)O)CCOCC1; Me2NCH2CH2 = CN(C)CC*; Aib = CC(C)(N)C(=O)O; Ahx = NCCCCCC(=O)O; Ava = NCCCCC(=O)O; Sar = CNCC(=O)O

Columns and labels:
[1] = biological target: T1, human interleukin-23 receptor (recombinant human IL-23R-Fc chimera) (Homo sapiens, UniProt Q5VWK5); assay: Human ELISA IL23/IL23R (assay for specific human IL23R antagonists); type: binding; conditions: Table 10; read-out: Human ELISA IL23/IL23R IC50
T1 construct: Fc (IgG Fc fusion)
Summary of the method: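 Competition format: peptide dilutions compete for IL23R-Fc chimera (0.1 μg/ml final, 60 min, room temperature) binding to immobilized human IL23 coated at […] overnight at 4 °C. Read-out is fluorogenic HRP signal from goat anti-hu-IgG1 detecting captured receptor.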

[2] = tested on: IL-23 induced STAT3 signaling in HEK-Blue™ IL-23 cells; assay: IL-23 induced STAT3 signaling in HEK-Blue IL-23 cells (SEAP reporter); type: cell-based; conditions: human IL23 0.25 ng/ml, read-out: pSTAT3
Summary of the method: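 Secreted SEAP, read at OD 620-655 nm after 45 min QUANTI-Blue development, reports STAT3 activation. Beforehand, cells were exposed to peptide dilutions for 60 min at 37 °C and then to 0.25 ng/ml final human IL-23 overnight, at 10,000 cells/well.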

[3] = Solubility testing of peptides at different pH; type: physicochemical; conditions: target concentration 1 mg/ml, 2 hours agitation
Summary of the method: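 Four buffers were used: 50 mM HCl pH 1.2 and 50 mM phosphate at pH 6.5, 7.4 and 9.0, each receiving dried-down compound at a 1 mg/mL target. After 2 h gentle shaking and 0.45 μm filtration, UV peak areas were compared with a DMSO standard curve of known concentration, allowing for extinction coefficients.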

Pepsin = tested on: T2, Pepsin; assay: Protease stability in simulated gastric fluid (Pepsin-SGF, FaSSGF); type: in vitro ADME; conditions: simulated gastric fluid with pepsin (Pepsin-SGF), 60 min, 1 μM peptide, 37° C., read-out: FaSSGF 60 (min), remaining percent of peptide
T2 construct: purchased Merck Millipore
Summary of the method: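 LCMS/MS peak areas, normalised to the time-0 sample as 100%, give percent remaining. Conditions: 37° C incubation of 1 μM final peptide in simulated gastric fluid with pepsin; ethanol/0.1% HCOOH quench at 0, 60, 120, 240 min.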

Pancreatin = assay: Protease stability in simulated intestinal fluid (Pancreatin-SIF, FaSSIF); type: in vitro ADME; conditions: 1 μM peptide, 37° C.; for remaining at 1 h, 1 µM: 60 min, read-out: FaSSIF 60 (min), remaining percent of peptide; for remaining at 2 h, 1 µM: 120 min, read-out: FaSSIF 120 (min), remaining percent of peptide; for remaining at 4 h, 1 µM: 240 min, read-out: FaSSIF 240 (min), remaining percent of peptide
Summary of the method: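 LC-MS/MS peak areas at 0, 60, 120 and 240 min, normalised to time 0 as 100%, give percent remaining. Reactions used 1 μM final peptide at 37° C in pancreatin-SIF (1 mg pancreatin in 10 mL SIF concentrate) and were stopped with ethanol containing 0.1% HCOOH.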

[4] = 50 mM HCl buffer, 50 mM HCl pH 1.2, read-out: Solubility Buffer pH 1.2
[5] = 50 mM phosphate buffer pH 6.5, read-out: Solubility Buffer pH 6.5
[6] = 50 mM phosphate buffer pH 7.4, read-out: Solubility Buffer pH 7.4

CC(=O)NCCCC[C@@H]1NC(=O)[C@H](Cc2c[nH]c3ccccc23)NC(=O)[C@@H](NC(C)=O)CCCCNC(=O)[C@@H]2CSSC[C@H](NC1=O)C(=O)N[C@@H](Cc1ccc(OCCN(C)C)cc1)C(=O)N[C@H](Cc1ccc3ccccc3c1)C(=O)N[C@@](C)(CCCCN(C)C)C(=O)N[C@H](C(=O)N[C@@H](CC(N)=O)C(=O)N[C@@H](Cc1cccnc1)C(=O)N(C)CC(N)=O)CCC(=O)NCCCCC(=O)N2 [compound 59] (Ac-KWK(Ac)CY(Me2NCH2CH2)[d2Nal][αMeLys(Me2)]EN[3Pal][Sar]-NH2; linker 1-4-8 via X1)
IC50 [1]: 0.24 nM
IC50 [2]: 0.07 nM
solubility at 2 h [3, 4]: ≥ 1090 µg/mL
solubility at 2 h [3, 5]: ≥ 1030 µg/mL
solubility at 2 h [3, 6]: ≥ 1090 µg/mL
remaining at 1 h, 1 µM (Pepsin): 77%
remaining at 1 h, 1 µM (Pancreatin): 98%
remaining at 2 h, 1 µM (Pancreatin): 97%
remaining at 4 h, 1 µM (Pancreatin): 97%

CC(=O)NCCCC[C@@H]1NC(=O)[C@H](Cc2c[nH]c3c(C)cccc23)NC(=O)[C@@H](NC(C)=O)CCCCNC(=O)[C@@H]2CSSC[C@H](NC1=O)C(=O)N[C@@H](Cc1ccc(OCCN(C)C)cc1)C(=O)N[C@@H](Cc1ccc3ccccc3c1)C(=O)NC(C)(C)C(=O)N[C@H](C(=O)N[C@@H](CC(N)=O)C(=O)N[C@@H](Cc1c[nH]cn1)C(N)=O)CCC(=O)N(C)CCCCC(=O)N2 [compound 60] (Ac-K[Trp(7-Me)]K(Ac)CY(Me2NCH2CH2)[2Nal][Aib]ENH-NH2; linker 1-4-8 via X3)
IC50 [1]: 0.21 nM
IC50 [2]: 0.16 nM
solubility at 2 h [3, 4]: ≥ 1020 µg/mL
solubility at 2 h [3, 5]: ≥ 1000 µg/mL
solubility at 2 h [3, 6]: ≥ 930 µg/mL
remaining at 1 h, 1 µM (Pepsin): 68%
remaining at 1 h, 1 µM (Pancreatin): 99%
remaining at 2 h, 1 µM (Pancreatin): 91%
remaining at 4 h, 1 µM (Pancreatin): 91%

CC[C@H](C)[C@H](NC(=O)[C@H](Cc1cccnc1)NC(=O)[C@H](CC(N)=O)NC(=O)[C@@H]1CCC(=O)NCCCCC(=O)N[C@H]2CSSC[C@H](NC(=O)[C@H](CCCCNC(C)=O)NC(=O)[C@H](Cc3c[nH]c4ccccc34)NC(=O)[C@H]([C@@H](C)O)NC(=O)[C@H](CC(N)=O)NC2=O)C(=O)N[C@@H](Cc2ccc(OCCN(C)C)cc2)C(=O)N[C@@H](Cc2ccc3ccccc3c2)C(=O)NC(C)(C)C(=O)N1)C(N)=O [compound 37] ([Ava]CNTWK(Ac)CY(Me2NCH2CH2)[2Nal][Aib]EN[3Pal]I-NH2; disulfide 2-7; lactam N-11)
IC50 [1]: 0.38 nM
IC50 [2]: 2 nM
solubility at 2 h [3, 4]: ≥ 890 µg/mL
solubility at 2 h [3, 5]: ≥ 940 µg/mL
solubility at 2 h [3, 6]: 590 µg/mL (≈ 311 µM)
solubility at 2 h ([3]; 50 mM phosphate buffer pH 9.0, read-out: Solubility Buffer pH 9.0): 90 µg/mL (≈ 47.5 µM)
remaining at 1 h, 1 µM (Pepsin): 77%
remaining at 1 h, 1 µM (Pancreatin): 80%
remaining at 2 h, 1 µM (Pancreatin): 79%
remaining at 4 h, 1 µM (Pancreatin): 63%

CC(=O)NCCCC[C@@H]1NC(=O)[C@H](Cc2c[nH]c3c(C)cccc23)NC(=O)[C@H]([C@@H](C)O)NC(=O)[C@H](CC(N)=O)NC(=O)[C@@H]2CSSC[C@H](NC1=O)C(=O)N[C@@H](Cc1ccc(OCCN(C)C)cc1)C(=O)N[C@@H](Cc1ccc3ccccc3c1)C(=O)NC(C)(C)C(=O)N[C@H](C(=O)N[C@@H](CC(N)=O)C(=O)N[C@@H](Cc1cccnc1)C(=O)N(C)CC(N)=O)CCC(=O)NCCCCC(=O)N2 [compound 64] ([Ava]CNT[Trp(7-Me)]K(Ac)CY(Me2NCH2CH2)[2Nal][Aib]EN[3Pal][Sar]-NH2; disulfide 2-7; lactam N-11)
IC50 [1]: 0.27 nM
IC50 [2]: 0.22 nM
remaining at 1 h, 1 µM (Pepsin): 91%
remaining at 1 h, 1 µM (Pancreatin): 96%
remaining at 2 h, 1 µM (Pancreatin): 92%
remaining at 4 h, 1 µM (Pancreatin): 92%

CC(=O)N[C@H]1CCCCNC(=O)[C@@H]2CSSC[C@H](NC(=O)[C@H](CC(C)C)NC(=O)[C@H](Cc3c[nH]c4c(C)cccc34)NC1=O)C(=O)N[C@@H](Cc1ccc(OCCN(C)C)cc1)C(=O)N[C@@H](Cc1ccc3ccccc3c1)C(=O)N[C@@](C)(CC(C)C)C(=O)N[C@H](C(=O)N[C@@H](CC(N)=O)C(=O)N[C@@H](Cc1cccnc1)C(=O)N(C)CC(N)=O)CCCCN(C)C(=O)CCC(=O)N2 [compound 68] (Ac-K[Trp(7-Me)]LCY(Me2NCH2CH2)[2Nal][αMeL][Lys(Me)]N[3Pal][Sar]-NH2; linker 1-4-8 via X6)
IC50 [1]: 1.48 nM
IC50 [2]: 2.69 nM
remaining at 1 h, 1 µM (Pepsin): 39%
remaining at 1 h, 1 µM (Pancreatin): 91%
remaining at 2 h, 1 µM (Pancreatin): 91%
remaining at 4 h, 1 µM (Pancreatin): 86%

CC(=O)NCCCC[C@@H]1NC(=O)[C@H](Cc2c[nH]c3c(C)cccc23)NC(=O)[C@H]([C@@H](C)O)NC(=O)[C@H](CC(N)=O)NC(=O)[C@@H]2CSSC[C@H](NC1=O)C(=O)N[C@@H](Cc1ccc(OCCN(C)C)cc1)C(=O)N[C@@H](Cc1ccc3ccccc3c1)C(=O)NC1(CCOCC1)C(=O)N[C@H](C(=O)N[C@@H](CC(N)=O)C(=O)N[C@@H](Cc1cccnc1)C(=O)N(C)CC(N)=O)CCCCNC(=O)CCC(=O)N2 [compound 102] (CNT[Trp(7-Me)]K(Ac)CY(Me2NCH2CH2)[2Nal][Thp]KN[3Pal][Sar]-NH2; disulfide 1-6; linker N-10 via Suc)
IC50 [1]: 0.3 nM
IC50 [2]: 0.09 nM
remaining at 1 h, 1 µM (Pepsin): 97%
remaining at 1 h, 1 µM (Pancreatin): 82%
remaining at 2 h, 1 µM (Pancreatin): 77%
remaining at 4 h, 1 µM (Pancreatin): 74%

CC(=O)NCCCC[C@@H]1NC(=O)[C@H](Cc2c[nH]c3c(C)cccc23)NC(=O)[C@H]([C@@H](C)O)NC(=O)[C@H](CC(N)=O)NC(=O)[C@@H]2CSSC[C@H](NC1=O)C(=O)N[C@@H](Cc1ccc(OCCN(C)C)cc1)C(=O)N[C@@H](Cc1ccc3ccccc3c1)C(=O)NC(C)(C)C(=O)N[C@H](C(=O)N[C@@H](CC(N)=O)C(=O)N[C@@H](Cc1c[nH]cn1)C(N)=O)CCC(=O)NCCCCC(=O)N2 [compound 20] ([Ava]CNT[Trp(7-Me)]K(Ac)CY(Me2NCH2CH2)[2Nal][Aib]ENH-NH2; disulfide 2-7; lactam N-11)
IC50 [1]: 0.5 nM
IC50 [2]: 3.12 nM
remaining at 1 h, 1 µM (Pepsin): 95%
remaining at 1 h, 1 µM (Pancreatin): 85%
remaining at 2 h, 1 µM (Pancreatin): 81%
remaining at 4 h, 1 µM (Pancreatin): 72%

COc1ccc(C[C@@H]2NC(=O)[C@@H]3CSSC[C@H](NC(=O)CCCCCNC(=O)C[C@@H](C(=O)N[C@@H](CC(N)=O)C(=O)N[C@@H](CC(N)=O)C(N)=O)NC(=O)C(C)(C)NC(=O)[C@H](Cc4ccc5ccccc5c4)NC2=O)C(=O)N[C@@H](CC(N)=O)C(=O)N[C@@H]([C@@H](C)O)C(=O)N[C@@H](Cc2c[nH]c4ccccc24)C(=O)N[C@@H](CCC(N)=O)C(=O)N3)cc1 [compound 3] ([Ahx]CNTWQCY(Me)[2Nal][Aib]DNN-NH2; disulfide 2-7; lactam N-11)
IC50 [1]: 0.7 nM
IC50 [2]: 17.2 nM
remaining at 1 h, 1 µM (Pepsin): 1%
remaining at 1 h, 1 µM (Pancreatin): 76%
remaining at 2 h, 1 µM (Pancreatin): 64%
remaining at 4 h, 1 µM (Pancreatin): 38%

CC(=O)NCCCC[C@@H]1NC(=O)[C@H](Cc2c[nH]c3c(C)cccc23)NC(=O)[C@@H](NC(C)=O)CCCCNC(=O)[C@@H]2CSSC[C@H](NC1=O)C(=O)N[C@@H](Cc1ccc(OCCN(C)C)cc1)C(=O)N[C@@H](Cc1ccc3ccccc3c1)C(=O)N[C@@](C)(CC(C)C)C(=O)N[C@H](C(=O)N[C@@H](CC(N)=O)C(=O)N[C@@H](Cc1cccnc1)C(=O)N(C)CC(N)=O)CCC(=O)NCCCCC(=O)N2 [compound 73] (Ac-K[Trp(7-Me)]K(Ac)CY(Me2NCH2CH2)[2Nal][αMeL]EN[3Pal][Sar]-NH2; linker 1-4-8 via X1)
IC50 [1]: 0.58 nM
IC50 [2]: 0.1 nM
remaining at 1 h, 1 µM (Pepsin): 87%
remaining at 1 h, 1 µM (Pancreatin): 82%
remaining at 2 h, 1 µM (Pancreatin): 81%
remaining at 4 h, 1 µM (Pancreatin): 77%
